According to US20260083851A1 (AVILAR THERAPEUTICS, INC., priority 2022, published 2026):
Positions of bridges follow the written chain, without caps; N, C: chain ends. Non-standard residues stand in square brackets, D forms with d. Residues, ends and D or L forms follow the SMILES beside them. ξ: configuration not given here. ξPro(4-NH2) = NC1CNC(C(=O)O)C1

Each compound was assayed against IgG (assay: IgG SPR binding). Settings: second table, read-out: IgG KD.

| Structure (SMILES) | Kd |
| --- | --- |
| CC(C)CC1NC(=O)C(Cc2cnc[nH]2)NC(=O)C(Cc2c[nH]c3ccccc23)NC(=O)C(C)NC(=O)C2CSSCC(NC(=O)C(Cc3c[nH]c4ccccc34)NC(=O)C(C(C)C)NC(=O)C(CC(C)C)NC(=O)C(CCC(=O)O)NC(=O)CNC1=O)C(=O)NC(C(C)O)C(=O)N1CCCC1C(=O)N1CC(N)CC1C(=O)NC(C)C(=O)N2 (centres unmarked) [compound 54] (cyclo(GELVWCTP[ξPro(4-NH2)]ACAWHL); disulfide 6-11; configuration not given here) | < 100 nM |
| CC(C)C[C@@H]1NC(=O)[C@H](Cc2cnc[nH]2)NC(=O)[C@H](Cc2c[nH]c3ccccc23)NC(=O)[C@H](C)NC(=O)[C@@H]2CSSC[C@H](NC(=O)[C@H](Cc3c[nH]c4ccccc34)NC(=O)[C@H](C(C)C)NC(=O)[C@H](CC(C)C)NC(=O)[C@H](CCC(=O)N(C)C)NC(=O)CNC1=O)C(=O)N[C@@H]([C@@H](C)O)C(=O)N1CCC[C@@H]1C(=O)N1C[C@@H](N)C[C@H]1C(=O)N[C@@H](C)C(=O)N2 [compound 68] | < 100 nM |

Second part, the compound after the results:

| Kd | Structure (SMILES) |
| --- | --- |
| < 100 nM | CC(C)C[C@@H]1NC(=O)[C@H](Cc2cnc[nH]2)NC(=O)[C@H](Cc2c[nH]c3ccccc23)NC(=O)[C@H](C)NC(=O)[C@@H]2CSSC[C@H](NC(=O)[C@H](Cc3c[nH]c4ccccc34)NC(=O)[C@H](C(C)C)NC(=O)[C@H](CC(C)C)NC(=O)[C@H](CCC(=O)O)NC(=O)CNC1=O)C(=O)N[C@@H]([C@@H](C)O)C(=O)N1CCC[C@@H]1C(=O)N1C[C@H](N)C[C@H]1C(=O)N[C@@H](CC(=O)O)C(=O)N2 [compound 95] |
| < 100 nM | CC(C)CC1NC(=O)C(Cc2cnc[nH]2)NC(=O)C(Cc2c[nH]c3ccccc23)NC(=O)C(C)NC(=O)C2CSSCC(NC(=O)C(Cc3c[nH]c4cc(Cl)ccc34)NC(=O)C(C(C)C)NC(=O)C(CC(C)C)NC(=O)C(CCC(=O)O)NC(=O)CNC1=O)C(=O)NC(C(C)O)C(=O)N1CCCC1C(=O)N1CC(N)CC1C(=O)NC(CC(=O)O)C(=O)N2 (centres unmarked) [compound 61] |
| < 100 nM | CC(C)CC1NC(=O)C(Cc2cnc[nH]2)NC(=O)C(Cc2c[nH]c3ccccc23)NC(=O)C(C)NC(=O)C2CSSCC(NC(=O)C(Cc3c[nH]c4ccccc34)NC(=O)C(C(C)C)NC(=O)C(CC(C)C)NC(=O)C(CCC(=O)O)NC(=O)CNC1=O)C(=O)NC(C(C)O)C(=O)N1CCCC1C(=O)N1CC(N)CC1C(=O)NC(CC(=O)O)C(=O)N2 (centres unmarked) [compound 58] |
